≈ marks a conversion by molar mass, not a printed value. Where “and” joins values, the source holds several entries; their conditions need not be identical. Identical values can stand only once.
Experiments:
EthR protein [1] = target: T1, EthR protein (Mycobacterium tuberculosis, UniProt P9WMC1); test: Inhibition of interaction of EthR with its target DNA sequence (BIAcore); type: binding, M. tuberculosis H37Rv; conditions: compound 3 μM, EthR 540 nM, 37° C.
Method: a) Measurement of the Activity of the Compounds on the Inhibition of Interaction of EthR with its Target DNA Sequence
The in vitro measurements of inhibition of binding of the EthR protein to its target DNA sequence were performed on a machine of BIAcore®2000 type (AB, Uppsala, Sweden).
The chips used are CM5 chips sold by the company GE Healthcare. Both the channels of a chip were activated with a solution containing 200 mM of EDC(N-ethyl-N′-(3-[…])carbodiimide) and 50 mM of NHS (N-hydroxysuccinimide). Next, streptavidin (500 ng/μl in a solution containing 10 mM of sodium acetate (pH 3.5) was injected over 12 minutes at a flow rate of 10 μl/minute. The 106-base-pair biotinylated DNA fragment corresponding to the ethA-R intergene region was deposited on one of the two channels of the chip at a rate of 200 ng/ml in order to obtain stable binding of streptavidin corresponding to 50 RU (resonance units). This DNA fragment was obtained by PCR using the chromosomal DNA of M. tuberculosis H37Rv as matrix and O-270: 5′-[…]-3′ (SEQ ID: No. 1) and O-271: 5′-biotin-[…]-3′ (SEQ ID: No. 2). The second channel was functionalized with a 113-base-pair biotinylated DNA fragment (fragment +14 to +127 of the bla gene of E. coli PCR-amplified using the following oligonucleotides: O-343: 5′-[…]-3′ (SEQ ID: No. 3) and O-344: 5′-biotin-[…]-3′ (SEQ ID: No. 4).
Measurement of the binding of the EthR protein to the immobilized DNA was performed at 37° C. in a reference buffer containing 10 mM of Tris-HCl (pH=7.5), 200 mM of NaCl, 0.1 mM of EDTA, 1 mM of DTT and 1% of DMSO at a flow rate of 20 μl/minute. The specific interaction (SI) of EthR with the 106-base-pair double-stranded DNA sequence, expressed in resonance units, corresponds to the difference in signal observed between the two channels.
For each inhibition measurement, the compounds of the invention are dissolved in the reference buffer at a concentration of 3 μM. The compounds of the invention are then incubated in the presence of the protein (540 nM) at 37° C. for 5 minutes, and each solution is then injected onto the two channels of the chip for 3 minutes at a flow rate of 20 μl/minute. The inhibition values are calculated at the end of the injection according to the following equation: […]
in which SIEthR corresponds to the value measured without ligand and SIEthR+ligand corresponds to the value measured in the presence of to ligand.

EthR protein [2] = target: T1, EthR protein; test: In vitro measurement of the IC50 (EthR/DNA binding, BIAcore); parameters: species or system M. tuberculosis H37Rv
Method: b) In Vitro Measurement of the IC50 of the Compounds of the Invention.
The in vitro measurement of this datum was performed according to the same principle as for the measurement of inhibition of the EthR/DNA binding using the BIAcore technique.
The specific interaction between EthR and the specific 106-bp DNA fragment was measured on a range of six concentrations of the compounds of the invention, this range extending from 0.11 μM to 27 μM. The IC50 values are then extrapolated from the sigmoid curves obtained.

M. bovis BCG = type: cell-based, M. bovis BCG 1173P2; conditions: from MIC of ETH alone (6 μM) and MIC of ETH with 25 μM compound
M. tuberculosis H37Rv = test: Ethionamide-potentiating effect, fluorimetric detection on Bactec MGIT 960; type: cell-based
[3] = Measurement of the solubility (PBS pH 7.4 vs methanol, LC/MS); type: physicochemical; conditions: pH 7.4, aqueous buffer, kinetic from dmso stock
Method: e) Measurement of the Solubility of the Compounds of the Invention
40 μl of a solution containing a compound of the invention at a concentration of 10 mM in DMSO were diluted in 1.960 ml of methanol, and another 40 μl were diluted in 1.960 ml of a PBS solution containing 675 mM of NaCl, 13.5 mM of KCl, 50 mM of Na2HPO4.2H2O and 10 mM of KH2PO4 at a pH of 7.4. The two solutions were stirred for 24 hours at room temperature, and then centrifuged for 5 minutes and filtered through 0.45 μm filters. 20 μl of each solution were then diluted in 118 μl of methanol and analyzed by liquid chromatography coupled to mass spectrometry (LC/MS). The solubility was determined by the ratio of the areas under the curve of the mass signal for the compound of the invention, according to the following equation: […]

[4] = strain 1%, no ETH, ligand 25 μM
[5] = strain 100%, ETH 0.025 μg/mL + ligand 25 μM
[6] = strain 100%, ETH 0.05 μg/mL + ligand 25 μM
[7] = strain 100%, ETH 0.1 μg/mL + ligand 25 μM
[8] = strain 100%, ETH 0.25 μg/mL + ligand 25 μM
[9] = strain 100%, no ETH, ligand 25 μM

T1 sequence (P9WMC1 whole entry, looked up): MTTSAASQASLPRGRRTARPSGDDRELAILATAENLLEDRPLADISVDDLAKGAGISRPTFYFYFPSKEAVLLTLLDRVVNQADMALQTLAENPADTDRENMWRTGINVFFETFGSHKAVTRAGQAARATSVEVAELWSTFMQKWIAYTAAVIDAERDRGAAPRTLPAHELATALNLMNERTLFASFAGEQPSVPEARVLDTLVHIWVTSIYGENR

SMILES: O=C(CC1CC1)N1CCC(c2nc(-c3cccs3)no2)CC1 [Compound 33, 2-cyclopropyl-1-[4-(3-thiophen-2-yl[1,2,4]oxadiazol-5-yl)piperid-1-yl]ethanone]
- inhibition at 3 µM (EthR protein [1]): 71%
- IC50 (EthR protein [2]): 1120 nM
- Potentiation % (M. bovis BCG): 2500%
- bacterial growth-inhibiting properties of the compound alone (M. tuberculosis H37Rv; 25 μM, no ETH (lines A5 and D3)): absence of bacterial growth-inhibiting properties
- MIC (M. tuberculosis H37Rv; Mycobacterium tuberculosis, H37RV, compound 25 μM, read-out: MIC for ETH in the presence of compound): 0.05 µg/mL and 0.3 µM
- State (M. tuberculosis H37Rv; [4]): R
- fluorescence reading D + 0 (M. tuberculosis H37Rv; [4]): 0
- fluorescence reading D + 1 (M. tuberculosis H37Rv; [4]): 0
- fluorescence reading D + 5 (first column, c6) (M. tuberculosis H37Rv; [4]): 0
- fluorescence reading D + 5 (second column, c7) (M. tuberculosis H37Rv; [4]): 0
- fluorescence reading D + 6 (M. tuberculosis H37Rv; [4]): 1
- fluorescence reading D + 7 (first column, c9) (M. tuberculosis H37Rv; [4]): 180
- fluorescence reading D + 7 (second column, c10) (M. tuberculosis H37Rv; [4]): 319
- fluorescence reading J + 8 (M. tuberculosis H37Rv; [4]): 400
- State (M. tuberculosis H37Rv; [5]): R
- fluorescence reading D + 0 (M. tuberculosis H37Rv; [5]): 0
- fluorescence reading D + 1 (M. tuberculosis H37Rv; [5]): 0
- fluorescence reading D + 5 (first column, c6) (M. tuberculosis H37Rv; [5]): 200
- fluorescence reading D + 5 (second column, c7) (M. tuberculosis H37Rv; [5]): 353
- fluorescence reading D + 6 (M. tuberculosis H37Rv; [5]): 400
- fluorescence reading D + 7 (first column, c9) (M. tuberculosis H37Rv; [5]): 400
- fluorescence reading D + 7 (second column, c10) (M. tuberculosis H37Rv; [5]): 400
- fluorescence reading J + 8 (M. tuberculosis H37Rv; [5]): 400
- State (M. tuberculosis H37Rv; [6]): S
- fluorescence reading D + 0 (M. tuberculosis H37Rv; [6]): 0
- fluorescence reading D + 1 (M. tuberculosis H37Rv; [6]): 0
- fluorescence reading D + 5 (first column, c6) (M. tuberculosis H37Rv; [6]): 0
- fluorescence reading D + 5 (second column, c7) (M. tuberculosis H37Rv; [6]): 0
- fluorescence reading D + 6 (M. tuberculosis H37Rv; [6]): 0
- fluorescence reading D + 7 (first column, c9) (M. tuberculosis H37Rv; [6]): 0
- fluorescence reading D + 7 (second column, c10) (M. tuberculosis H37Rv; [6]): 0
- fluorescence reading J + 8 (M. tuberculosis H37Rv; [6]): 0
- State (M. tuberculosis H37Rv; [7]): S
- fluorescence reading D + 0 (M. tuberculosis H37Rv; [7]): 0
- fluorescence reading D + 1 (M. tuberculosis H37Rv; [7]): 0
- fluorescence reading D + 5 (first column, c6) (M. tuberculosis H37Rv; [7]): 0
- fluorescence reading D + 5 (second column, c7) (M. tuberculosis H37Rv; [7]): 0
- fluorescence reading D + 6 (M. tuberculosis H37Rv; [7]): 0
- fluorescence reading D + 7 (first column, c9) (M. tuberculosis H37Rv; [7]): 0
- fluorescence reading D + 7 (second column, c10) (M. tuberculosis H37Rv; [7]): 0
- fluorescence reading J + 8 (M. tuberculosis H37Rv; [7]): 0
- State (M. tuberculosis H37Rv; [8]): S
- fluorescence reading D + 0 (M. tuberculosis H37Rv; [8]): 0
- fluorescence reading D + 1 (M. tuberculosis H37Rv; [8]): 0
- fluorescence reading D + 5 (first column, c6) (M. tuberculosis H37Rv; [8]): 0
- fluorescence reading D + 5 (second column, c7) (M. tuberculosis H37Rv; [8]): 0
- fluorescence reading D + 6 (M. tuberculosis H37Rv; [8]): 0
- fluorescence reading D + 7 (first column, c9) (M. tuberculosis H37Rv; [8]): 0
- fluorescence reading D + 7 (second column, c10) (M. tuberculosis H37Rv; [8]): 0
- fluorescence reading J + 8 (M. tuberculosis H37Rv; [8]): 0
- State (M. tuberculosis H37Rv; [9]): R
- fluorescence reading D + 0 (M. tuberculosis H37Rv; [9]): 0
- fluorescence reading D + 1 (M. tuberculosis H37Rv; [9]): 0
- fluorescence reading D + 5 (first column, c6) (M. tuberculosis H37Rv; [9]): 400
- fluorescence reading D + 5 (second column, c7) (M. tuberculosis H37Rv; [9]): 400
- fluorescence reading D + 6 (M. tuberculosis H37Rv; [9]): 400
- fluorescence reading D + 7 (first column, c9) (M. tuberculosis H37Rv; [9]): 400
- fluorescence reading D + 7 (second column, c10) (M. tuberculosis H37Rv; [9]): 400
- fluorescence reading J + 8 (M. tuberculosis H37Rv; [9]): 400
- solubility at 24 h [3]: 63.5 µg/mL (≈ 200 µM)

Source: patent publication US8338599B2, “Compounds having a potentiating effect on the activity of ethionamide and uses thereof” (priority 2006, dated 2012)
